This is an account of results in ChEMBL document CHEMBL2169819, “Synthesis and biological evaluation of 2-amino-3-(4-chlorobenzoyl)-4-[(4-arylpiperazin-1-yl)methyl]-5-substituted-thiophenes. effect of the 5-modification on allosteric enhancer activity at the A1 adenosine receptor” (J Med Chem, 2012).

In general, inhibition refers to the relative decrease from the control value, in per cent.

Experiment [1] has as its target T1, Adenosine receptor A1 (Homo sapiens) (UniProt P30542).
T1 sequence (whole entry): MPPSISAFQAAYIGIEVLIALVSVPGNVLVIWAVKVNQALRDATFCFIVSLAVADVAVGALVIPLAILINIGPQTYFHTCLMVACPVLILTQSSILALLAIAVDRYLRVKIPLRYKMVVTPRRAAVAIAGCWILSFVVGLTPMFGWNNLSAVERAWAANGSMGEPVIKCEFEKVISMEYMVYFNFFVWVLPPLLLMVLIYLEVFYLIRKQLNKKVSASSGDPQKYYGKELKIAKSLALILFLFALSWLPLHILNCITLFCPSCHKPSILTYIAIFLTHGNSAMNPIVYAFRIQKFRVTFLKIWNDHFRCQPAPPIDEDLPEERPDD
Kind of experiment: Allosteric enhancing activity at human adenosine A1 receptor expressed in CHO cells assessed as inhibition of forskolin-stimulated cAMP accumulation at 10 uM incubated for 10 mins prior to forskolin-stimulation measured after 5 mins by competition protein binding assay. The experiment is classed as functional, cell-based. (Cyclic AMP is a second messenger, typically raised through Gs and lowered through Gi signalling.)

Experiment [2] has as its target T1, Adenosine receptor A1 (Homo sapiens). Briefly: Allosteric enhancing activity at human adenosine A1 receptor expressed in CHO cells assessed as inhibition of forskolin-stimulated cAMP accumulation at 100 nM incubated for 10 mins prior to forskolin-stimulation measured after 5 mins by competition protein binding assay in presence of 2-chloro-N6-cyclopentyladenosine. The experiment is classed as functional, cell-based.

Experiment [3] has as its target Adenosine receptor A2a (Homo sapiens) (UniProt P29274). Kind of experiment: Displacement of [3H]ZM241385 from human adenosine A2A receptor expressed in CHO cells at 10 uM after 120 mins by scintillation counting. The experiment is classed as cell-based. (In general: Loss of bound radioactivity is the signal in a displacement assay; it reports binding, not function.)

For experiment [4], the target named is T1, Adenosine receptor A1 (Homo sapiens). Briefly: Allosteric enhancing activity at human adenosine A1 receptor expressed in CHO cells assessed as increase in [3H]-2-chloro-N6-cyclopentyladenosine Bmax at 10 uM after 90 mins relative to control. The class given is cell-based.
Experiment [5] shares this target. Briefly: Displacement of [3H]DPCPX from human adenosine A1 receptor expressed in CHO cells at 10 uM after 120 mins by scintillation counting. The experiment is classed as cell-based.
Experiment [6] has as its target T2, Adenosine receptor A3 (Homo sapiens) (UniProt P0DMS8).
T2 sequence (whole entry): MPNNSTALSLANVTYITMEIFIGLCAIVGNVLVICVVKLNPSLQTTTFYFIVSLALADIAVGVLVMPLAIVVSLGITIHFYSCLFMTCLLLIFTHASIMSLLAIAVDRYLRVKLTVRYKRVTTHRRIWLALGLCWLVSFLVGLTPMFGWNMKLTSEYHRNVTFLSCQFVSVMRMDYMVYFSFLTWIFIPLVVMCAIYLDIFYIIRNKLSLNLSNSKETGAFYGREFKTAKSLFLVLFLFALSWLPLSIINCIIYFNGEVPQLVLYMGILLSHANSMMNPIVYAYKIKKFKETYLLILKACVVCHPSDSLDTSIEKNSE
Kind of experiment: Displacement of [3H]MRE-3008-F20 from human adenosine A3 receptor expressed in CHO cells at 10 uM after 120 mins by scintillation counting. The experiment is classed as cell-based.

Experiment [7] deals with T1, Adenosine receptor A1 (Homo sapiens). Kind of experiment: Allosteric enhancing activity at human adenosine A1 receptor expressed in CHO cells assessed as increase in CCPA-induced [3H]DPCPX displacement at 10 uM after 90 mins relative to control. The experiment is classed as cell-based.

Some results are limits rather than exact numbers.

Chain of Adenosine receptor A2a (Homo sapiens) (P29274 whole entry): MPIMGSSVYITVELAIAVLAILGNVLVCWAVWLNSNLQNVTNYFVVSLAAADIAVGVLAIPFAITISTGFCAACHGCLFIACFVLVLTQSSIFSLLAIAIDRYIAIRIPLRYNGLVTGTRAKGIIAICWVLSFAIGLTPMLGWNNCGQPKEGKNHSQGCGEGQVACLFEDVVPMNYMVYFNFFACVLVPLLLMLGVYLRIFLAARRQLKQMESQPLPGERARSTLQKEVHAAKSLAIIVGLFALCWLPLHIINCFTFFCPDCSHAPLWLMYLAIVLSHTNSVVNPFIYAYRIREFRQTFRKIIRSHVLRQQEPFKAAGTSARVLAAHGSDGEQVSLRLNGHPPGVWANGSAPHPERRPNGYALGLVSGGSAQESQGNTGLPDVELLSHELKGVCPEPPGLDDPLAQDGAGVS

On to `Nc1sc(-c2ccc(Cl)cc2)c(CN2CCN(c3ccccc3)CC2)c1C(=O)c1ccc(Cl)cc1`, for which the inhibition in experiment [1] is 75%; in experiment [2], 72%; in experiment [3], < 12%; in experiment [5], < 12%; in experiment [6], < 12%. Also, the fold change (FC) in experiment [4] was 10.2. Further, the Ratio Ki in experiment [7] is 9.5.

With `Nc1sc(-c2ccc(F)cc2)c(CN2CCN(c3ccccc3)CC2)c1C(=O)c1ccc(Cl)cc1`, the inhibition is 89% in experiment [1]; 81% in experiment [2]; < 12% in experiment [3]; < 12% in experiment [5]; < 12% in experiment [6]. Further, the fold change (FC) in experiment [4] was 14.1. Moreover, the Ratio Ki in experiment [7] is 13.3.

Take `Nc1sc(-c2ccc(Cl)cc2)c(CN2CCN(c3ccc(C(F)(F)F)cc3)CC2)c1C(=O)c1ccc(Cl)cc1`: the inhibition was 83% in experiment [1]; 75% in experiment [2]; < 12% in experiment [3]; < 12% in experiment [5]; < 12% in experiment [6]. In experiment [4], the fold change (FC) came out at 11.2. In experiment [7], the Ratio Ki stood at 10.5.

Turning to `Nc1sc(-c2ccc(Cl)cc2)c(CN2CCN(c3ccc(Cl)cc3)CC2)c1C(=O)c1ccc(Cl)cc1`, the inhibition in experiment [1] is 85%; in experiment [2] it was 71%; in experiment [3], < 12%; in experiment [5], < 12%; in experiment [6] it was < 12%. Besides, the fold change (FC) in experiment [4] was 11.4. Moreover, the Ratio Ki in experiment [7] is 8.7.

As to `Cc1sc(N)c(C(=O)c2ccc(Cl)cc2)c1CN1CCN(c2ccc(F)cc2)CC1`, the inhibition in experiment [1] is 50%; in experiment [2], 53%; in experiment [3] it was < 12%; in experiment [5], < 12%; in experiment [6] it was < 12%. Besides, the fold change (FC) in experiment [4] was determined as 5.9. Besides, the Ratio Ki in experiment [7] is 5.2.

As to `Cc1sc(N)c(C(=O)c2ccc(Cl)cc2)c1CN1CCN(c2ccc(C#N)cc2)CC1`, the inhibition in experiment [1] is 11%; in experiment [2] it was 15%; in experiment [3], < 12%; in experiment [5], < 12%; in experiment [6] it was < 12%. Also, the fold change (FC) in experiment [4] was determined as 1.4. In addition, the Ratio Ki in experiment [7] was 1.2.

Consider `Nc1sc(-c2ccc(Cl)cc2)c(CN2CCN(c3ccc(Cl)c(C(F)(F)F)c3)CC2)c1C(=O)c1ccc(Cl)cc1`, for which the inhibition in experiment [1] was 76%; in experiment [2], 70%; in experiment [3], < 12%; in experiment [5], < 12%; in experiment [6], < 12%. In addition, the fold change (FC) in experiment [4] came out at 10.1. Besides, the Ratio Ki in experiment [7] came to 8.

Consider `CCc1sc(N)c(C(=O)c2ccc(Cl)cc2)c1CN1CCN(c2ccc(Cl)cc2)CC1`, for which the inhibition is 60% in experiment [1]; 53% in experiment [2]; < 12% in experiment [3]; < 12% in experiment [5]; < 12% in experiment [6]. In experiment [4], the fold change (FC) amounted to 6.5. In addition, the Ratio Ki in experiment [7] is 6.

With `CCc1sc(N)c(C(=O)c2ccc(Cl)cc2)c1CN1CCN(c2ccccc2)CC1`, the inhibition in experiment [1] is 57%; in experiment [2], 50%; in experiment [3], < 12%; in experiment [5], < 12%; in experiment [6], < 12%. For the same molecule, the fold change (FC) in experiment [4] is 5.5. Also, in experiment [7], the Ratio Ki was 4.9.

In the case of `Nc1sc(-c2ccccc2)c(CN2CCN(c3ccc(C(F)(F)F)cc3)CC2)c1C(=O)c1ccc(Cl)cc1`, the inhibition is 72% in experiment [1]; 73% in experiment [2]; < 12% in experiment [3]; < 12% in experiment [5]; < 12% in experiment [6]. The fold change (FC) in experiment [4] stood at 10.7. Also, the Ratio Ki in experiment [7] is 8.9.

For the molecule `Cc1sc(N)c(C(=O)c2ccc(Cl)cc2)c1CN1CCN(c2ccc([N+](=O)[O-])cc2)CC1`, the inhibition in experiment [1] was 9%; in experiment [2], 13%; in experiment [3], < 12%; in experiment [5], < 12%; in experiment [6], < 12%. In addition, the fold change (FC) in experiment [4] came to 1.3. Besides, in experiment [7], the Ratio Ki amounted to 1.1.

Regarding `Cc1sc(N)c(C(=O)c2ccc(Cl)cc2)c1CN1CCN(c2ccc(Cl)c(C(F)(F)F)c2)CC1`, the inhibition was 52% in experiment [1]; 48% in experiment [2]; < 12% in experiment [3]; < 12% in experiment [5]; < 12% in experiment [6]. The fold change (FC) in experiment [4] is 5.1. Also, the Ratio Ki in experiment [7] was found to be 4.6.

For the molecule `Nc1sc(-c2ccc(Cl)cc2)c(CN2CCN(c3ccc(Cl)c(Cl)c3)CC2)c1C(=O)c1ccc(Cl)cc1`, the inhibition was 69% in experiment [1]; 67% in experiment [2]; < 12% in experiment [3]; < 12% in experiment [5]; < 12% in experiment [6]. Moreover, the fold change (FC) in experiment [4] stood at 8.3. Also, the Ratio Ki in experiment [7] came out at 7.7.

With `Nc1sc(-c2ccccc2)c(CN2CCN(c3ccc(Cl)cc3)CC2)c1C(=O)c1ccc(Cl)cc1`, the inhibition in experiment [1] was 68%; in experiment [2], 67%; in experiment [3] it was < 12%; in experiment [5], < 12%; in experiment [6] it was < 12%. Further, the fold change (FC) in experiment [4] worked out at 9.7. The Ratio Ki in experiment [7] came out at 7.9.

As to `Cc1sc(N)c(C(=O)c2ccc(Cl)cc2)c1CN1CCN(c2ccc(I)cc2)CC1`, the inhibition is 54% in experiment [1]; 45% in experiment [2]; < 12% in experiment [3]; < 12% in experiment [5]; < 12% in experiment [6]. For the same molecule, in experiment [4], the fold change (FC) amounted to 5.4. In experiment [7], the Ratio Ki worked out at 4.8.

Turning to `Cc1sc(N)c(C(=O)c2ccc(Cl)cc2)c1CN1CCN(c2ccc(C(F)(F)F)cc2)CC1`, the inhibition is 60% in experiment [1]; 61% in experiment [2]; < 12% in experiment [3]; < 12% in experiment [5]; < 12% in experiment [6]. The fold change (FC) in experiment [4] was 7.6. For the same molecule, the Ratio Ki in experiment [7] is 6.8.

`Cc1sc(N)c(C(=O)c2ccc(Cl)cc2)c1CN1CCN(c2cccc(C(F)(F)F)c2)CC1`: the inhibition is 51% in experiment [1]; 52% in experiment [2]; < 12% in experiment [3]; < 12% in experiment [5]; < 12% in experiment [6]. In addition, the fold change (FC) in experiment [4] came to 6.2. Also, the Ratio Ki in experiment [7] turned out to be 5.7.

With `Nc1sc(Br)c(CN2CCN(c3ccc(F)cc3)CC2)c1C(=O)c1ccc(Cl)cc1`, the inhibition in experiment [1] is 46%; in experiment [2], 41%; in experiment [3], < 12%; in experiment [5] it was < 12%; in experiment [6], < 12%. In experiment [4], the fold change (FC) came out at 4.4. Also, the Ratio Ki in experiment [7] was 4.1.

Regarding `Cc1sc(N)c(C(=O)c2ccc(Cl)cc2)c1CN1CCN(Cc2ccccc2)CC1`, the inhibition in experiment [1] was 14%; in experiment [2] it was 19%; in experiment [3] it was < 12%; in experiment [5] it was < 12%; in experiment [6], < 12%. The fold change (FC) in experiment [4] worked out at 1.8. Further, in experiment [7], the Ratio Ki came out at 1.4.

As for `Nc1sc(-c2ccccc2)c(CN2CCN(c3ccc(Cl)c(Cl)c3)CC2)c1C(=O)c1ccc(Cl)cc1`, the inhibition in experiment [1] was 55%; in experiment [2], 56%; in experiment [3], < 12%; in experiment [5] it was < 12%; in experiment [6], < 12%. Moreover, in experiment [4], the fold change (FC) stood at 6.8. In addition, in experiment [7], the Ratio Ki amounted to 3.

For `Nc1sc(-c2ccc(Cl)cc2)c(CN2CCN(Cc3ccccc3)CC2)c1C(=O)c1ccc(Cl)cc1`, the inhibition in experiment [1] was 65%; in experiment [2], 63%; in experiment [3], < 12%; in experiment [5] it was < 12%; in experiment [6] it was < 12%. For the same molecule, in experiment [4], the fold change (FC) was determined as 7.7. Moreover, the Ratio Ki in experiment [7] stood at 6.8.

Turning to `Nc1sc(-c2ccccc2)c(CN2CCN(c3ccccc3C(F)(F)F)CC2)c1C(=O)c1ccc(Cl)cc1`, the inhibition in experiment [1] is 62%; in experiment [2], 66%; in experiment [3], < 12%; in experiment [5] it was < 12%; in experiment [6] it was < 12%. Moreover, the fold change (FC) in experiment [4] worked out at 8.2. Besides, in experiment [7], the Ratio Ki stood at 7.6.
